Test results published in patent US20080009418A1, “Selective Inhibitors” (Alchemia LTD., priority 2004, published 2008).

Legend:
Human δ-opioid (DOP) = biological target: T1, Human δ-opioid (DOP) (Homo sapiens, UniProt P41143); experiment: Radioligand binding, human δ-opioid (DOP) membranes, FlashPlate, [3H]-Bremazocine; settings: compound at 10 μM, [3H]-Bremazocine
T1 construct: purchased Perkin Elmer Biosignal
Method in brief: (§1)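 Cloned human receptor membranes were coated onto FlashPlate wells and incubated with radioligand and compound (added from a 0.5 mM DMSO daughter plate) for 1 hour at room temperature in the dark. Scintillation counting gave percent inhibition, with DMSO defining total and reference ligand defining non-specific binding.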

Human neurokinin (NK1) = biological target: T2, Human neurokinin (NK1) (Homo sapiens, UniProt P25103); experiment: Radioligand binding, human neurokinin NK1 membranes, filtration, [125I]-Substance P; settings: compound at 10 μM, [125I]-Substance P
T2 construct: purchased Perkin Elmer Biosignal
T2 sequence (P25103 whole entry): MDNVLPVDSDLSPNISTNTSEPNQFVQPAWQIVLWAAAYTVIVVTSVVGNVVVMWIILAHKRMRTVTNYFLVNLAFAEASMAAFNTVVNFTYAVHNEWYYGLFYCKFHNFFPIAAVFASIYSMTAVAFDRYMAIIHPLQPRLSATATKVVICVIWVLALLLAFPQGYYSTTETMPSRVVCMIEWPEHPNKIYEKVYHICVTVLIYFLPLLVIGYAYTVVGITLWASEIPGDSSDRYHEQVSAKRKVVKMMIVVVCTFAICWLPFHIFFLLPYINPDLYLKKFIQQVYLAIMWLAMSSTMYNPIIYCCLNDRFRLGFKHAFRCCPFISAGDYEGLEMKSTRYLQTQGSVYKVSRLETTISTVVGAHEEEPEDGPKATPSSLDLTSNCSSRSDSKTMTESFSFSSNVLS
Method in brief: (§2)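 Filtration binding on cloned human receptor membranes (1 Unit/well), [125I]-Substance P for NK1 and [3H]-Diprenorphine for KOP, 1 h at room temperature. Filters PEI-presoaked, washed with cold 50 mM Tris-HCl pH 7.4, counted by scintillation; percent inhibition calculated, reference ligand defining non-specific binding.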

Human κ-Opioid (KOP) = biological target: T3, Human κ-Opioid (KOP) (Homo sapiens, UniProt P41145); experiment: Radioligand binding, human κ-opioid (KOP) membranes, filtration, [3H]-Diprenorphine; settings: compound at 10 μM, [3H]-Diprenorphine
T3 construct: purchased Perkin Elmer Biosignal
T3 sequence (P41145 whole entry): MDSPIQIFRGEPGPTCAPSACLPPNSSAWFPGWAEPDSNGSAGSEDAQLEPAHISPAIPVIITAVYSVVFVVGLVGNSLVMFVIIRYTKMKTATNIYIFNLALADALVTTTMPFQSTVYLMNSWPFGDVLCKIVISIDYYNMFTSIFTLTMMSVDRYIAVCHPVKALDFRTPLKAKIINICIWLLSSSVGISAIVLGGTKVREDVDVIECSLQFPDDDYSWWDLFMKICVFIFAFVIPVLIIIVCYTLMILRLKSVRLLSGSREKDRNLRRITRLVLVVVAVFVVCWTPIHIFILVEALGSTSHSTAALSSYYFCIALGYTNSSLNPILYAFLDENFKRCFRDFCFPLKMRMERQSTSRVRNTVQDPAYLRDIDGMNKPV
Method in brief: as §2

Human Melanocortin (MC4) = biological target: T4, Human Melanocortin (MC4) (Homo sapiens, UniProt P32245); experiment: Radioligand binding, human melanocortin MC4 membranes, FlashPlate, [125I]-NDP-αMSH; settings: compound at 10 μM, [125I]-NDP-αMSH
T4 construct: purchased Perkin Elmer Biosignal
T4 sequence (P32245 whole entry): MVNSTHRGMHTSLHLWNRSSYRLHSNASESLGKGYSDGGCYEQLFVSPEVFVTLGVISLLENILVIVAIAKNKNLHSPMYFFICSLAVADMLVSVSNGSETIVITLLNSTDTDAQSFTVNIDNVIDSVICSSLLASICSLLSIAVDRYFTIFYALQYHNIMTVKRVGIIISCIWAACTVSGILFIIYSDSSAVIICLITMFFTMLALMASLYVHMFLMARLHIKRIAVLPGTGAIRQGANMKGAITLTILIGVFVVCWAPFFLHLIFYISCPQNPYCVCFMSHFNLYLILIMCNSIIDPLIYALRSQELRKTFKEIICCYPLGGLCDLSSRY
Method in brief: as §1

Human μ-opioid (MOP) = biological target: T5, Human μ-opioid (MOP) (Homo sapiens, UniProt P35372); experiment: Radioligand binding, human μ-opioid (MOP) membranes, FlashPlate, [3H]-Naloxone; settings: compound at 10 μM, [3H]-Naloxone
T5 construct: purchased Perkin Elmer Biosignal
T5 sequence (P35372 whole entry): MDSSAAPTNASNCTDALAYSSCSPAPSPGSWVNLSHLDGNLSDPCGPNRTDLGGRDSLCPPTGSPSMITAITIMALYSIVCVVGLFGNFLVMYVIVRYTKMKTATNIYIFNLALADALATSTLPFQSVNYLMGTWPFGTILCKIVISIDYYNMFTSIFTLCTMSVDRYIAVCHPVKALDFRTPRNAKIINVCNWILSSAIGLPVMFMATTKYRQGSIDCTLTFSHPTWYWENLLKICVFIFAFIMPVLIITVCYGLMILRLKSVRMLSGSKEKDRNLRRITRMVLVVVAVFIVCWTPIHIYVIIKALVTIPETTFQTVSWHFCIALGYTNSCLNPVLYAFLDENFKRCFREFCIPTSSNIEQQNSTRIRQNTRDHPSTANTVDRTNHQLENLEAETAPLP
Method in brief: as §1

Human Melanocortin (MC3) = biological target: T6, Human Melanocortin (MC3) (Homo sapiens, UniProt P41968); experiment: Radioligand binding, human melanocortin MC3 membranes, FlashPlate, [125I]-NDP-αMSH; settings: compound at 10 μM, [125I]-NDP-αMSH
T6 construct: purchased Perkin Elmer Biosignal
T6 sequence (P41968 whole entry): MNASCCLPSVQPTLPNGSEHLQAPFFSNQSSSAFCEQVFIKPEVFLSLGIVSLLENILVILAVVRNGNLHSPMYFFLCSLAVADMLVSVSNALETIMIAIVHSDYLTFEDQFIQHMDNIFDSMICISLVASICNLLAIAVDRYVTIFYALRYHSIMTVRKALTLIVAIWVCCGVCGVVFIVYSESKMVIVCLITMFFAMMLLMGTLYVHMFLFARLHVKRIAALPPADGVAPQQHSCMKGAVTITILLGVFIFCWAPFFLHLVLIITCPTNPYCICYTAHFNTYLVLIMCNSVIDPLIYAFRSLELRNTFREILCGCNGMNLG
Method in brief: as §1

[1] = biological target: T7, Human neuropeptide Y (NPY-Y1) (Homo sapiens, UniProt P25929); experiment: Radioligand binding, human neuropeptide Y NPY-Y1 membranes, FlashPlate, [125I]-PYY; settings: compound at 10 μM, [125I]-PYY
T7 construct: purchased Perkin Elmer Biosignal
T7 sequence (P25929 1-384): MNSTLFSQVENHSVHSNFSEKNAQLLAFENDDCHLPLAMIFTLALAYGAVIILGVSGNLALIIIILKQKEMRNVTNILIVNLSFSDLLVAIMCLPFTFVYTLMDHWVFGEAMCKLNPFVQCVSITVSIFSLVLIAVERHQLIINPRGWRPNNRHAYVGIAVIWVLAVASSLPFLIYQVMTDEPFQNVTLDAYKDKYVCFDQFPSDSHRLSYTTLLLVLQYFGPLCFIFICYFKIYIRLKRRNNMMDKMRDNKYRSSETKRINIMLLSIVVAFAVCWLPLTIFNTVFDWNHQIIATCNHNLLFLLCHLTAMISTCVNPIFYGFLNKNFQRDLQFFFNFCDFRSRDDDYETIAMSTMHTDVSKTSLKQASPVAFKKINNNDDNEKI
Method in brief: as §1

[2] = biological target: T8, Human melanin-concentrating hormone (MCH1) (Homo sapiens, UniProt Q99705); experiment: Radioligand binding, human melanin-concentrating hormone MCH1 membranes, FlashPlate, [125I]-S36057; settings: compound at 10 μM
T8 construct: purchased Perkin Elmer Biosignal
T8 sequence (Q99705 whole entry): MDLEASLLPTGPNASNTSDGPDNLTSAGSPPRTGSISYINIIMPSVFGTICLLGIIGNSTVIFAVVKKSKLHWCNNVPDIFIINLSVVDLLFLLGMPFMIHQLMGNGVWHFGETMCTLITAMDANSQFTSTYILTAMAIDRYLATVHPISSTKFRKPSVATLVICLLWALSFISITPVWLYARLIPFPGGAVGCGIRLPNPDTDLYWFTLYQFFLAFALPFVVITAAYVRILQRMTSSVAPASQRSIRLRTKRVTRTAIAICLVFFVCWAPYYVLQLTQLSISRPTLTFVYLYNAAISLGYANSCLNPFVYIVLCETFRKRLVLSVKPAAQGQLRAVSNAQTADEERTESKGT
Method in brief: as §1

Human opioid (ORL1) = biological target: T9, Human opioid (ORL1) (Homo sapiens, UniProt P41146); experiment: Radioligand binding, human opioid ORL1 membranes, FlashPlate, [125I]-Nociceptin; settings: compound at 10 μM, [125I]-Nociceptin
T9 construct: purchased Perkin Elmer Biosignal
T9 sequence (P41146 whole entry): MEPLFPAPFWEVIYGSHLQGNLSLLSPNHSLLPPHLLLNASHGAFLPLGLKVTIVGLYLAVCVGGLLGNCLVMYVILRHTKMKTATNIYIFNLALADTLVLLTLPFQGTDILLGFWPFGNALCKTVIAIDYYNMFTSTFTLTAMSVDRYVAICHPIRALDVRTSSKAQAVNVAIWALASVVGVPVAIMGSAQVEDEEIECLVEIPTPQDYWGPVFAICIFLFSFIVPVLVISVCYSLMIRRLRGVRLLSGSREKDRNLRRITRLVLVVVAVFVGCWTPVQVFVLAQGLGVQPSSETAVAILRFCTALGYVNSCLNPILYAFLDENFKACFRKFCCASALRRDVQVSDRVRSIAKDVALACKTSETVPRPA
Method in brief: as §1

Human melanocortin (MC5) = biological target: T10, Human melanocortin (MC5) (Homo sapiens, UniProt P33032); experiment: Radioligand binding, human melanocortin MC5 membranes, FlashPlate, [125I]-NDP-αMSH; settings: compound at 10 μM, [125I]-NDP-αMSH
T10 construct: purchased Perkin Elmer Biosignal
T10 sequence (P33032 whole entry): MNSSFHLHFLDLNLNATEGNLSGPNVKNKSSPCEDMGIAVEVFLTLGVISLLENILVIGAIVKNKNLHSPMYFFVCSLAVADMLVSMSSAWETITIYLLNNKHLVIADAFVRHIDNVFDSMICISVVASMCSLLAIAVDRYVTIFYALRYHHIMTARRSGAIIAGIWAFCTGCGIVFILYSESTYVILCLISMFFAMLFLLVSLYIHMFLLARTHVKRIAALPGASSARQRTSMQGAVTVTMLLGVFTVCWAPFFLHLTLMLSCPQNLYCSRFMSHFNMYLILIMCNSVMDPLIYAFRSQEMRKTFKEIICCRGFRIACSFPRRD
Method in brief: as §1

Mouse urotensin (mUR2) = biological target: T11, Mouse urotensin (mUR2) (Mus musculus, UniProt Q8VIH9); experiment: Radioligand binding, mouse urotensin mUR2 membranes, FlashPlate, [125I]-Urotensin II; settings: compound at 10 μM, [125I]-Urotensin II
T11 construct: purchased Perkin Elmer Biosignal
T11 sequence (Q8VIH9 1-385): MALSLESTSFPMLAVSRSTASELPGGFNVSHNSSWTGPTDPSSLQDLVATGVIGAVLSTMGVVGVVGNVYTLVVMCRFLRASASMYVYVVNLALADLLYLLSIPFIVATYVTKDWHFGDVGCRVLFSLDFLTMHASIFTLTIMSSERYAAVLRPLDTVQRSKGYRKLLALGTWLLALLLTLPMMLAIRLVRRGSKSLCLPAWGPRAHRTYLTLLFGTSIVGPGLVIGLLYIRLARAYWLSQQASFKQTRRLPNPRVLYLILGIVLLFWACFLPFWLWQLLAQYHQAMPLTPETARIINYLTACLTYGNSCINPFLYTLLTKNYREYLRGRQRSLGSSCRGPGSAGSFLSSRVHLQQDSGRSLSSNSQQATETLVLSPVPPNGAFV
Method in brief: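 Cloned mouse urotensin (mUR2) receptor membranes from Perkin Elmer Biosignal were immobilized in FlashPlate microplates using a proprietary coating. Each well got 19.5 μl buffer, then 0.5 μl of DMSO, reference ligand, or compound. Adding 5 μl of [125I]-Urotensin II, diluted to 5× final concentration in binding buffer, started binding. Plates were sealed with TopSeal-A and incubated 1 hour at room temperature in the dark. Wells were counted for 30 seconds each on a TopCount after a 60-second delay, and percentage inhibition was calculated.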

[3] = [125I]-S36057, human MCH1 membranes

T1 sequence (P41143 whole entry): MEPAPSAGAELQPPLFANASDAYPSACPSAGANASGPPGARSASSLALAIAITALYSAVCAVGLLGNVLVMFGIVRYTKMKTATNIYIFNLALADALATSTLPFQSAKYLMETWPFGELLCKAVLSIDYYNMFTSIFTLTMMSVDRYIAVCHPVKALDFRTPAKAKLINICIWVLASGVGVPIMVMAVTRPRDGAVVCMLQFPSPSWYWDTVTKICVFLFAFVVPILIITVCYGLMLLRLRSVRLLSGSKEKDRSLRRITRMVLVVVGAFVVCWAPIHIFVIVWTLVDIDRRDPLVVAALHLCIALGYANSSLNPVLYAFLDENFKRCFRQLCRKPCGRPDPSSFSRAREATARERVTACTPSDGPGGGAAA

| Structure (SMILES) | A1: inhibition of radioligand binding (Human δ-opioid (DOP); human DOP membranes) | A8: inhibition of radioligand binding (Human neurokinin (NK1); human NK1 membranes) | A2: inhibition of radioligand binding (Human κ-Opioid (KOP); human KOP membranes) | A4: inhibition of radioligand binding (Human Melanocortin (MC4); human MC4 membranes) | A7: inhibition of radioligand binding (Human μ-opioid (MOP); human MOP membranes) | A3: inhibition of radioligand binding (Human Melanocortin (MC3); human MC3 membranes) | A9: inhibition of radioligand binding ([1]; human NPY-Y1 membranes) | A6: inhibition of radioligand binding [2, 3] | A10: inhibition of radioligand binding (Human opioid (ORL1); human ORL1 membranes) | A5: inhibition of radioligand binding (Human melanocortin (MC5); human MC5 membranes) | A11: inhibition of radioligand binding (Mouse urotensin (mUR2); mouse mUR2 membranes) | A4: inhibition of radioligand binding (Human Melanocortin (MC4); human MC4 membranes, 10 µM) | A3: inhibition of radioligand binding (Human Melanocortin (MC3); human MC3 membranes, 10 µM) | also measured |
| --- | --- | --- | --- | --- | --- | --- | --- | --- | --- | --- | --- | --- | --- | --- |
| COCC1OC(OCc2ccc(Cl)cc2)C(NC(=O)CN)C(OCc2ccc(-c3ccccc3)cc2)C1O (stereo not shown) [compound 205] |  |  |  |  |  |  |  |  |  |  |  |  |  | A1: inhibition of radioligand binding (Human δ-opioid (DOP); FlashPlate): − (“−” indicates less than 50% inhibition at 10 μM); A8: inhibition of radioligand binding (Human neurokinin (NK1); filtration): + (“+” indicates greater than 50% inhibition at 10 μM); A2: inhibition of radioligand binding (Human κ-Opioid (KOP); filtration): − (“−” indicates less than 50% inhibition at 10 μM); A4: inhibition of radioligand binding (Human Melanocortin (MC4); FlashPlate): + (“+” indicates greater than 50% inhibition at 10 μM); A7: inhibition of radioligand binding (Human μ-opioid (MOP); FlashPlate): − (“−” indicates less than 50% inhibition at 10 μM); A3: inhibition of radioligand binding (Human Melanocortin (MC3); FlashPlate): − (“−” indicates less than 50% inhibition at 10 μM); A9: inhibition of radioligand binding ([1]; FlashPlate): − (“−” indicates less than 50% inhibition at 10 μM); A6: inhibition of radioligand binding ([2]; [125I]-S36057, FlashPlate): − (“−” indicates less than 50% inhibition at 10 μM); A10: inhibition of radioligand binding (Human opioid (ORL1); FlashPlate): − (“−” indicates less than 50% inhibition at 10 μM); A5: inhibition of radioligand binding (Human melanocortin (MC5); FlashPlate): + (“+” indicates greater than 50% inhibition at 10 μM); A11: inhibition of radioligand binding (Mouse urotensin (mUR2); FlashPlate): − (“−” indicates less than 50% inhibition at 10 μM) |
| N=C(N)NCC(=O)NC1C(OCc2ccc(Cl)cc2)OC(COCc2ccc3ccccc3c2)C(O)C1OCc1ccc2ccccc2c1 (stereo not shown) [compound 420] | − (“−” indicates less than 50% inhibition at 10 μM) | + (“+” indicates greater than 50% inhibition at 10 μM) | − (“−” indicates less than 50% inhibition at 10 μM) | + (“+” indicates greater than 50% inhibition at 10 μM) | − (“−” indicates less than 50% inhibition at 10 μM) | + (“+” indicates greater than 50% inhibition at 10 μM) | − (“−” indicates less than 50% inhibition at 10 μM) | − (“−” indicates less than 50% inhibition at 10 μM) | + (“+” indicates greater than 50% inhibition at 10 μM) | + (“+” indicates greater than 50% inhibition at 10 μM) | − (“−” indicates less than 50% inhibition at 10 μM) |  |  |  |
| NCCC(=O)NC1C(OCc2ccc3ccccc3c2)OC(COCc2ccc(Cl)cc2)C(O)C1OCc1ccc2ccccc2c1 (stereo not shown) [compound 386] | − (“−” indicates less than 50% inhibition at 10 μM) | + (“+” indicates greater than 50% inhibition at 10 μM) | − (“−” indicates less than 50% inhibition at 10 μM) | + (“+” indicates greater than 50% inhibition at 10 μM) | − (“−” indicates less than 50% inhibition at 10 μM) | + (“+” indicates greater than 50% inhibition at 10 μM) | − (“−” indicates less than 50% inhibition at 10 μM) | − (“−” indicates less than 50% inhibition at 10 μM) | − (“−” indicates less than 50% inhibition at 10 μM) | + (“+” indicates greater than 50% inhibition at 10 μM) | − (“−” indicates less than 50% inhibition at 10 μM) |  |  |  |
| NCCC(=O)N[C@H]1C(OCc2ccc3ccccc3c2)O[C@H](COCc2ccccc2)[C@@H](O)[C@@H]1OCc1ccc2ccccc2c1 (stereo partly shown) [compound 445] | − (“−” indicates less than 50% inhibition at 10 μM) | + (“+” indicates greater than 50% inhibition at 10 μM) |  |  |  |  | − (“−” indicates less than 50% inhibition at 10 μM) |  |  |  | − (“−” indicates less than 50% inhibition at 10 μM) | + (“+” indicates greater than 50% inhibition at 10 μM) | + (“+” indicates greater than 50% inhibition at 10 μM) | A2: inhibition of radioligand binding (Human κ-Opioid (KOP); human KOP membranes, 10 µM): + (“+” indicates greater than 50% inhibition at 10 μM); A7: inhibition of radioligand binding (Human μ-opioid (MOP); human MOP membranes, 10 µM): + (“+” indicates greater than 50% inhibition at 10 μM); A6: inhibition of radioligand binding ([2]; [125I]-S36057, human MCH1 membranes, 10 µM): + (“+” indicates greater than 50% inhibition at 10 μM); A10: inhibition of radioligand binding (Human opioid (ORL1); human ORL1 membranes, 10 µM): + (“+” indicates greater than 50% inhibition at 10 μM); A5: inhibition of radioligand binding (Human melanocortin (MC5); human MC5 membranes, 10 µM): + (“+” indicates greater than 50% inhibition at 10 μM) |
| NCCC(=O)N[C@H]1C(OCc2ccc3ccccc3c2)O[C@H](COCc2ccc(Cl)cc2)[C@@H](O)[C@@H]1OCc1ccc(Cl)cc1 (stereo partly shown) [compound 440] | − (“−” indicates less than 50% inhibition at 10 μM) | + (“+” indicates greater than 50% inhibition at 10 μM) | − (“−” indicates less than 50% inhibition at 10 μM) |  | − (“−” indicates less than 50% inhibition at 10 μM) |  | − (“−” indicates less than 50% inhibition at 10 μM) | + (“+” indicates greater than 50% inhibition at 10 μM) | − (“−” indicates less than 50% inhibition at 10 μM) | + (“+” indicates greater than 50% inhibition at 10 μM) | − (“−” indicates less than 50% inhibition at 10 μM) | − (“−” indicates less than 50% inhibition at 10 μM) | − (“−” indicates less than 50% inhibition at 10 μM) |  |
